Reference: paper PMC11267568 (2024)

Columns and labels:
Experiment in all cases: in-line probing
[1] = test system: 11-1 (RNA, aptamer) GGCUACCGCCGCUGGCUCUCGGGCGACUGUGCCUCGCGUGGAUAUGGCACGCGUAGAAGGGCACCGUAAAUGUCCUACUUGCGGUAGUCAUCCCGAUGGACACUGUCGGCGUAG; settings: 10 mM MgCl2, 50 mM KCl (1x of 2x buffer); 25 mM Tris-HCl pH 8.3 (1x), room temperature, ~48 h
[2] = test system: 11-1B (RNA, aptamer) GGCUACCGCCGCUGGCUCUCGGGCGACUGUGCCUCGCGUGGAUAUGGCACGCGUAGAAGGGCACCGUAAAUGUCCUACUUGCGGUAGUC; settings: 10 mM MgCl2, 50 mM KCl (1x of 2x buffer); 25 mM Tris-HCl pH 8.3 (1x), room temperature, ~48 h
[3] = test system: r10-1 (RNA, aptamer) GGACCUCGAGGCUACCGCGGCUGGCUCUCGGACGACUAUGCCUCGCGUGGAUAUGGCACGCGUAGAAGGGCACCGUAAAUGUCCUACUUGCGGUAGUCAUCCCGAUGGA; settings: 10 mM MgCl2, 50 mM KCl (1x of 2x buffer); 25 mM Tris-HCl pH 8.3 (1x), room temperature, ~48 h
[4] = test system: r10-2 (RNA, aptamer) GGACCUCGAGGCUACCGCAGCUGGCUCUCGGACGACUAUGCCUCGCGUGGAUAUGGCACGCGUAGAAGGGCACCGUAAAUGUCCUACUUGCGGUAGUCAUCCCGAUGGA; settings: 10 mM MgCl2, 50 mM KCl (1x of 2x buffer); 25 mM Tris-HCl pH 8.3 (1x), room temperature, ~48 h
[5] = test system: r10-3 (RNA, aptamer) GGACCUCGAGGCUACCGCGGCUGGCUCUCGGACGACUGUGCCUCGCGUGGAUAUGGCACGCGUAGAAGGACACCGUAAAUGUCCUACUUGCGGUAGUCAUCCCGAUGGA; settings: 10 mM MgCl2, 50 mM KCl (1x of 2x buffer); 25 mM Tris-HCl pH 8.3 (1x), room temperature, ~48 h
[6] = test system: r10-4 (RNA, aptamer) GGACCUCGAGGCUACCGCGGCUGGCUCUCGGACGACUAUGCCUCGCGUGGAUAUGGCACGCGUAGAAGGGCACCGUAAAUGCCCUACUUGCGGUAGUCAUCCCGAUGGA; settings: 10 mM MgCl2, 50 mM KCl (1x of 2x buffer); 25 mM Tris-HCl pH 8.3 (1x), room temperature, ~48 h
[7] = test system: r10-1C (RNA, aptamer) GGCUACCGCGGCUGGCUUCGGCCUCGCGUGGAUAUGGCACGCGUAGAAGGGCACCGUAAAUGUCCUACUUGCGGUAGUC; settings: 10 mM MgCl2, 50 mM KCl (1x of 2x buffer); 25 mM Tris-HCl pH 8.3 (1x), room temperature, ~48 h
[8] = test system: r10-1C-M1 (RNA, aptamer) GGCUACCGCGGCUGGCUUCGGCCUCGCGUGGAUAUAACACGCGUAGAAGGGCACCGUAAAUGUCCUACUUGCGGUAGUC; settings: 10 mM MgCl2, 50 mM KCl (1x of 2x buffer); up to 10 μM branaplam; 25 mM Tris-HCl pH 8.3, room temperature
[9] = test system: r10-1G (RNA, aptamer) GGCUGGCUUCGGCCUCGCGUGGAUAUGGCACGCGUAGAAGGGCACCGUAAAUGUCCUACUU; settings: 10 mM MgCl2, 50 mM KCl (1x of 2x buffer); 25 mM Tris-HCl pH 8.3 (1x), room temperature, ~48 h
[10] = test system: r10-1H (RNA, aptamer) GGCCUCGCGUGGAUAUGGCACGCGUAGAAGGGCACCGUAAAUGUCCUACUU; settings: 10 mM MgCl2, 50 mM KCl (1x of 2x buffer); 25 mM Tris-HCl pH 8.3 (1x), room temperature, ~48 h
[11] = test system: r10-1N (RNA, aptamer) GGCCUCGCGUGGAUAUGGCACGCGUAGAAGGGCACCGUAAAUGUCCUA; settings: 10 mM MgCl2, 50 mM KCl (1x of 2x buffer); 25 mM Tris-HCl pH 8.3 (1x), room temperature, ~48 h
[12] = test system: 11-19A (RNA, aptamer) GGCUACCGCCGCUGGGCUCUCGGGACGACACUGAGGGAACGCGUGGAUAUGGCACGCAACAGCGGGCACCGUAAAUGUCCUGGCGGUAGUC; settings: 10 mM MgCl2, 50 mM KCl (1x of 2x buffer); 25 mM Tris-HCl pH 8.3 (1x), room temperature, ~48 h
[13] = test system: t14-4 (RNA, aptamer) GGCUGAUCUCCCAUCGGUAUGCCCUUCUGUGUGAAGGCGGUACUAAUGCCGGAGUGUAGAAACUGGAUAAUGCCAGUUAGUGGUAUGGAGAUACUACGACGCACGC; settings: 10 mM MgCl2, 50 mM KCl (1x of 2x buffer); 25 mM Tris-HCl pH 8.3 (1x), room temperature, ~48 h
[14] = test system: 11-19 (RNA, aptamer) GGCUACCGCCGCUGGGCUCUCGGGACGACACUGAGGGAACGCGUGGAUAUGGCACGCAACAGCGGGCACCGUAAAUGUCCUGGCGGUAGUCGACCCGAUGGACACUGUCGGCGUAG; settings: 10 mM MgCl2, 50 mM KCl (1x of 2x buffer); 0.1 to 10 μM branaplam

KD [1]: 2440 ± 1030 nM | KD [2]: 1170 ± 170 nM | KD [3]: 420 ± 41 nM | KD [4]: 623 ± 55 nM | KD [5]: 964 ± 382 nM | KD [6]: 634 ± 74 nM | KD [7]: 400 ± 43 nM | binding [8]: no | KD [9]: 352 ± 21 nM | KD [10]: 311 ± 19 nM | KD [11]: 150 ± 26 nM | KD [12]: 846 ± 127 nM | KD [13]: 2270 ± 150 nM | binding [14]: yes
SMILES: CC1(C)CC(Oc2ccc(-c3ccc(-c4cn[nH]c4)cc3O)nn2)CC(C)(C)N1
